Measured values as given in paper PMC4697807, “Novel Zn^2+ Modulated GPR39 Receptor Agonists Do Not Drive Acute Insulin Secretion in Rodents” (PLoS ONE, 2015).
Like-named read-outs stand apart in the source and are kept apart here.

Columns and labels:
[1] = target: T1, rGPR39 (Rattus norvegicus, UniProt A0A8J8Y1V6); experiment: DMR label-free assay, HEK293s cells transfected with rat GPR39; type: cell-based
T1 sequence (A0A8J8Y1V6 1-456): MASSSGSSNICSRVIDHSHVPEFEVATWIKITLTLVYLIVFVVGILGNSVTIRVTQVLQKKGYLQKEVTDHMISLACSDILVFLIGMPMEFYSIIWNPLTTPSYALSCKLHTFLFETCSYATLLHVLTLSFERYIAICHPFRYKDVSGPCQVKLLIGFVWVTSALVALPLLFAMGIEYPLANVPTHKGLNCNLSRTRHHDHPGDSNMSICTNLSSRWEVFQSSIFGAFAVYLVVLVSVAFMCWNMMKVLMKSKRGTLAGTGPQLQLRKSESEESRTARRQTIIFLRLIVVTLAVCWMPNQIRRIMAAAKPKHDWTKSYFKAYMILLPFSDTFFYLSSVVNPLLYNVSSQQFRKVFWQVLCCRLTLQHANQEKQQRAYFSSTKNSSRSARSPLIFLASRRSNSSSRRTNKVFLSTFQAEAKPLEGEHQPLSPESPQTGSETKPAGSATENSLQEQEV
From the text: (§1) Full length human (AF034633), rat (DM091294) and mouse (BC085285) GPR39 (GeneArt–Life Technologies, Carlsbad, CA) were subcloned into the pIRESneo3 vector (Clontech, Mountain View, CA). The resulting expression vectors hGPR39-, rGPR39- and mGPR39-pIRESneo3 were transfected into HEK293s cells (ATCC CRL-1573) using Lipofectamine 2000 (Life Technologies). Individual clones were isolated using flow cytometry with a FACSVantage SE DIVA (Becton Dickinson, Franklin Lakes, NJ) and clones were chosen based on responses to Zn^2+ measured in a cAMP assay (see below). […] HEK293s-derived cell lines were cultured at 37°C, 10% CO2 and 95% humidity in DMEM supplemented with 10% FBS and 600 μg/ml Geneticin (Life Technologies). The mouse pancreas epithelial cell line NIT-1 (ATCC CRL-2055) with endogenous expression of GPR39 was cultured at 37°C, 5% CO2, and 95% humidity in Ham´s F12 (Life Technologies) supplemented with 10% FBS.
(§2) DMR assays were performed using an Epic instrument (Corning Inc., Corning, NY). 12,000 cells per well were cultured for 24 h in 384-well fibronectin-coated Epic biosensor plates (Corning). On the day of experiment, culture medium was removed and replaced with 30 μl buffer A (HBSS, HEPES 20 mM pH7.4, 1% DMSO, 0.01% BSA) using an EL406 (Bio-Tek). Plates were incubated at 26 °C for 1 h inside the Epic to allow for temperature equilibration. A baseline was read for 2 min, and then 15 μl compounds in buffer A were added using a CyBi-Well vario (CyBio) and DMR was detected during 45 min.
(§3) Concentration response data were fitted with a four parameter logistic fit using Eq 1, y=A+((B−A)/1+((C/x)^D))) (1) where A is no activation, B is full activation, C is the EC50 and D is the Hill slope.

[2] = target: T2, GPR39 (Homo sapiens, UniProt O43194); experiment: Dynamic mass redistribution (DMR) label-free assay, HEK293s-hGPR39 cells; type: cell-based; set-up: Full length human (AF034633), rat (DM091294) and mouse (BC085285) GPR39; expressed in transfected cells; host or cells: HEK293s (ATCC CRL-1573), pIRESneo3 vector, selected clones; conditions: for Efficacy at 33 μM: AZ1395 100% reference
T2 sequence (O43194 1-453): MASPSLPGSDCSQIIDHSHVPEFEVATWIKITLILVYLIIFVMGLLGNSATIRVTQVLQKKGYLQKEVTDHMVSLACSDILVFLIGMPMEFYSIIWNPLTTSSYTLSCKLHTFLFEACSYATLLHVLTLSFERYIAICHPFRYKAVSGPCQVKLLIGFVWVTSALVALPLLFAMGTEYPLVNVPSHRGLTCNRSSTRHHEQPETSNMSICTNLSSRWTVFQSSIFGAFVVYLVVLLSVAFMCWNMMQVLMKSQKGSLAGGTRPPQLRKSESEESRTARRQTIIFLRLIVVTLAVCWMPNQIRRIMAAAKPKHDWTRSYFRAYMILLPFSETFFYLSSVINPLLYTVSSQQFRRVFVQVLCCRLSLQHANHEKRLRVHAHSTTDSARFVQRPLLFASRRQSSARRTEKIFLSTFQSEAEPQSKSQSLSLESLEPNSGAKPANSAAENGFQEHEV
From the text: as §1, §2, §3

[3] = target: T2, GPR39; experiment: Back-scattering interferometry (BSI) binding assay, HEK293s-hGPR39 membranes; set-up: Full length human (AF034633), rat (DM091294) and mouse (BC085285) GPR39; expressed in transfected cells; host or cells: HEK293s (ATCC CRL-1573), pIRESneo3 vector, selected clones
Method: Membranes (1.3 mg protein/ml) from HEK293s-hGPR39 and untransfected HEK293s cells were diluted 11-fold in 50 mM Tris, pH 7.5, 5 μM ZnCl2, 0.3% DMSO. The compounds were diluted from 10 mM in DMSO to the final maximum stock concentration of 30 μM with 50 mM Tris, pH 7.5, 5 μM ZnCl2, 24.6 mM sucrose. A 3-fold serial dilution was performed with the compounds and refractive index-matched assay buffer, 50 mM Tris, pH 7.5, 5 μM ZnCl2, 24.6 mM sucrose, 0.3% DMSO. The compound serial dilutions were mixed 1:1 with either the GPR39 or wild type membrane fractions in a 96-well polypropylene microplate (Eppendorf, Hauppauge, NY). After a 2 hour incubation at room temperature, the plate was analyzed on a pre-commercial prototype BSI instrument (Molecular Sensing, Inc., Nashville, TN). Binding signal was expressed as the phase shift in the interference fringe patterns on a CMOS camera as measured in milliradians. The data from the wild type membrane fractions was subtracted from the GPR39-expressing fractions point by point to obtain the specific binding interaction of the compounds with GPR39 and fit to one-site binding or two-site binding models using built-in models in Graphpad Prism to determine K D values for each compound.

[4] = absence (w/o) of Zn^2+, read-out: EC50
[5] = absence (w/o) of Zn^2+, read-out: pEC50 ± SD (converted)
[6] = presence of 5 μM Zn^2+, read-out: EC50
[7] = presence of 5 μM Zn^2+, read-out: pEC50 ± SD (converted)
[8] = presence of 5 μM Zn^2+, one site binding model, read-out: K D ± SE
[9] = Zn^2+ binding, two site binding model

Structure (SMILES) | EC50 [1, 4] [nM] | EC50 [1, 5] [nM] | EC50 [1, 6] [nM] | EC50 [1, 7] [nM] | EC50 [2, 5] [nM] | EC50 [2, 6] [nM] | EC50 [2, 7] [nM] | Kd [3, 8] [nM] | Efficacy at 33 μM ([2]; absence (w/o) of Zn^2+) [%] | EC50 [2, 4] [nM] | Emax relative to the 100% efficacy reference AZ1395 ([2]; Zn^2+ by itself) [%] | pEC50 ± SD ([2]; Zn^2+ by itself) | EC50 ([2]; Zn^2+ by itself, read-out: EC50) [nM] | pK D1 (high affinity site) [3, 9] | pK D2 (low affinity site) [3, 9] | Kd ([3]; Zn^2+ binding, two site binding model, read-out: K D1 (high affinity site) ± SE) [nM] | Kd ([3]; Zn^2+ binding, two site binding model, read-out: K D2 (low affinity site) ± SE) [nM]
N#Cc1ccc(OCCn2ccnc2)c(OCCn2ccnc2)c1 [AZ1395, 3,4-bis-(2-imidazol-1-ylethoxy)-benzonitrile] | 5100 | 5130 | 33 | 33.1 | 2290 | 36 | 35.5 | 233 ± 70 |  |  |  |  |  |  |  |  | 
Cc1nc2c(C(=O)O)cnn2c(O)c1Cc1ccc(Cl)cc1 [AZ4237, 6-[(4-chlorophenyl)methyl]-7-hydroxy-5-methyl-pyrazolo[1,5-a]pyrimidine-3-carboxylic acid] | > 33000 |  | 150 | 148 |  |  | 191 | 48 ± 18 | 20 | > 33000 |  |  |  |  |  |  | 
Cc1nc(-c2nc3c(c(=O)[nH]2)CN(C(=O)c2cccc(Cl)c2F)CC3)cs1 [AZ7914, 6-(3-chloro-2-fluoro-benzoyl)-2-(2-methylthiazol-4-yl)-3,5,7,8-tetrahydropyrido-[4,3-d]pyrimidin-4-one] | 7400 |  | 150 | 148 |  |  | 102 | 192 ± 85 | 39 | > 33000 |  |  |  |  |  |  | 
[Zn+2] [Zn^2+] |  |  |  |  |  |  |  |  |  |  | ~35 | (4.87 ± 0.05) | 13000 | 6.27 | 3.68 | 530 | 211000
